Experimental data as given in paper PMC3351444, “Molecular Evolution of a Peptide GPCR Ligand Driven by Artificial Neural Networks” (PLoS ONE, 2012).
Read-outs that look alike come from different tables or passages of the source. Square brackets hold non-standard residues; d marks the D form. Ends that are not written are not given here. Peptide text beside a SMILES is read from it.

Key:
[1] = In vitro peptide stability in human serum (RP-HPLC); conditions: for half-life / half-life at 50 µg/mL: human; for half-life: serum; for half-life at 50 µg/mL: human serum, 25% (v/v) in RPMI
human CMKLR1 = target: T1, human CMKLR1 (Homo sapiens, UniProt Q99788); experiment: Ca2+ mobilization (CellLux imaging) agonist assay in HEK293A cells expressing CMKLR1 and Gα15; format: cell-based
T1 construct: host or cells: HEK293A (Invitrogen), stably expressing human Gα15
T1 sequence (Q99788 1-373): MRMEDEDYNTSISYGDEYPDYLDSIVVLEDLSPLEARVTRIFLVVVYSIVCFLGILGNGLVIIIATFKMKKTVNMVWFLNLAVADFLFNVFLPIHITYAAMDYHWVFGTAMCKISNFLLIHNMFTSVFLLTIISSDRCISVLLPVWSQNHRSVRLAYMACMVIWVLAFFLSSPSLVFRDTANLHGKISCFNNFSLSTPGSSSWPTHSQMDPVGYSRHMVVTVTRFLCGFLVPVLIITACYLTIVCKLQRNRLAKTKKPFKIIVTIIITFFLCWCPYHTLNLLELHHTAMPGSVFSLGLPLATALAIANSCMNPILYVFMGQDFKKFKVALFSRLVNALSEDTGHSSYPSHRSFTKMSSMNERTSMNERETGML
Experimental: HEK293A cells (Invitrogen) expressing CMKLR1 and Gα15 were seeded at 5*10^4 cells/well in a poly-D-lysine coated 96-well black well/clear bottom plate (BD Falcon) and cultured overnight. From eighteen to twenty-four hours later, cells were loaded with FLUO4-AM (Invitrogen). Then the cells were washed two times with C1 solution (130 mM NaCl, 5 mM KCl, 10 mM HEPES pH 7.4, 2 mM CaCl2, and 10 mM Glucose). After the final wash, a 100 µL of residual volume remained on the cells. Peptides were dissolved in 10% DMSO to a concentration of 1 mM and were diluted in C1 solution with 0.1 % BSA. They were aliquoted as 2x solutions in 96-well plates and were simultaneously transferred by the robotic system within the imager from the ligand plate to the cell plate. […] Fluorescence data was generated in duplicate and experiments were repeated for at least three times. […] For the calculation of concentration-response curves, signals of two wells receiving the same concentration of test substances were averaged and the fluorescence changes of corresponding buffer C1 wells were subtracted. Signals were normalized to background fluorescence. For the calculation of EC50 values, plots of amplitude versus concentrations were prepared in SigmaPlot 11.

[2] = intracellular calcium mobilization, HEK293 cells expressing CMKLR1, mean of three independent experiments ± SD, read-out: activity: EC50 ±SD
[3] = Ca2+ mobilization, CMKLR1, decimal comma
[4] = Ca2+ mobilization, CMKLR1, decimal comma, NR where no EC50 is given, read-out: EC50

Row | Molecule | max response (human CMKLR1; [3]) | EC50 (human CMKLR1; [4]) | also measured
1 | CC(C)C[C@H](NC(=O)[C@@H](N)Cc1ccc(O)cc1)C(=O)N1CCC[C@H]1C(=O)NCC(=O)N[C@@H](CCC(N)=O)C(=O)N[C@@H](Cc1ccc(O)cc1)C(=O)N[C@@H](C)C(=O)N[C@@H](Cc1ccccc1)C(=O)N[C@H](Cc1ccccc1)C(=O)O (H-YLPGQYAF[dF]-OH) |  |  | half-life [1]: 36 ± 4 min
2 | CC(C)C[C@H](NC(=O)[C@@H](N)Cc1ccc(O)cc1)C(=O)N1CCC[C@H]1C(=O)NCC(=O)N[C@@H](CCC(N)=O)C(=O)N[C@@H](Cc1ccc(O)cc1)C(=O)N[C@@H](C)C(=O)N[C@@H](Cc1ccccc1)C(=O)N[C@H](CO)C(=O)O (H-YLPGQYAF[dS]-OH; N-terminus assumed) |  |  | half-life at 50 µg/mL [1]: 22 ± 2 min
3 | C[C@H](NC(=O)[C@H](Cc1ccc(O)cc1)NC(=O)[C@H](CCC(N)=O)NC(=O)CNC(=O)[C@@H]1CCCN1C(=O)[C@H](CCCNC(=N)N)NC(=O)[C@@H](N)Cc1ccc(O)cc1)C(=O)N[C@@H](Cc1ccccc1)C(=O)N[C@H](CO)C(=O)O (H-YRPGQYAF[dS]-OH; N-terminus assumed) |  |  | half-life at 50 µg/mL [1]: 21 ± 4 min; EC50 (human CMKLR1; [2]): 8.62 ± 5.01 nM
4 | CC(C)[C@H](NC(=O)[C@@H](N)Cc1ccc(O)cc1)C(=O)N1CCC[C@H]1C(=O)NCC(=O)N[C@@H](CCC(N)=O)C(=O)N[C@@H](Cc1ccccc1)C(=O)N[C@@H](C)C(=O)N[C@@H](Cc1ccccc1)C(=O)N[C@H](Cc1ccccc1)C(=O)O (H-YVPGQFAF[dF]-OH; N-terminus assumed) |  |  | half-life at 50 µg/mL [1]: 42 ± 19 min; EC50 (human CMKLR1; [2]): 4.17 ± 2.31 nM
5 | CC(C)C[C@H](NC(=O)[C@H](N)Cc1ccc(O)cc1)C(=O)N1CCC[C@H]1C(=O)NCC(=O)N[C@@H](CCC(N)=O)C(=O)N[C@@H](Cc1ccc(O)cc1)C(=O)N[C@@H](C)C(=O)N[C@@H](Cc1ccccc1)C(=O)N[C@@H](Cc1ccccc1)C(=O)O (H-[dY]LPGQYAFF-OH; N-terminus assumed) |  |  | half-life at 50 µg/mL [1]: 135 ± 39 min
6 | CC(C)C[C@H](NC(=O)[C@H](N)Cc1ccc(O)cc1)C(=O)N1CCC[C@H]1C(=O)NCC(=O)N[C@@H](CCC(N)=O)C(=O)N[C@@H](Cc1ccc(O)cc1)C(=O)N[C@@H](C)C(=O)N[C@@H](Cc1ccccc1)C(=O)N[C@@H](CO)C(=O)O (H-[dY]LPGQYAFS-OH) |  |  | half-life [1]: 77 ± 5 min
7 | CC(C)C[C@H](NC(=O)[C@@H](N)Cc1ccc(O)cc1)C(=O)N1CCC[C@H]1C(=O)NCC(=O)N[C@@H](CCC(N)=O)C(=O)N[C@@H](Cc1ccc(O)cc1)C(=O)N[C@H](Cc1c[nH]c2ccccc12)C(=O)N[C@@H](Cc1ccccc1)C(=O)N[C@H](Cc1ccccc1)C(=O)O [YLPGQYwFf] (H-YLPGQY[dW]F[dF]-OH; N-terminus assumed) |  |  | half-life at 50 µg/mL [1]: 159 ± 56 min; EC50 (human CMKLR1; [2]): 3.24 ± 1.02 nM
8 | CC(C)C[C@H](NC(=O)[C@@H](N)Cc1ccc(O)cc1)C(=O)N1CCC[C@H]1C(=O)N[C@H](C)C(=O)N[C@@H](CCC(N)=O)C(=O)N[C@@H](Cc1ccc(O)cc1)C(=O)N[C@@H](C)C(=O)N[C@@H](Cc1ccccc1)C(=O)N[C@H](CO)C(=O)O [YLPaQYAFs] (H-YLP[dA]QYAF[dS]-OH; N-terminus assumed) |  |  | half-life at 50 µg/mL [1]: 110 ± 26 min; EC50 (human CMKLR1; [2]): 4.42 ± 3.41 nM
9 | CC(C)C[C@H](NC(=O)[C@@H](N)Cc1ccc(O)cc1)C(=O)N1CCC[C@H]1C(=O)N[C@H](CCC(N)=O)C(=O)N[C@@H](CCC(N)=O)C(=O)N[C@@H](Cc1ccc(O)cc1)C(=O)N[C@@H](C)C(=O)N[C@@H](Cc1ccccc1)C(=O)N[C@H](Cc1ccccc1)C(=O)O [YLPqQYAFf] (H-YLP[dQ]QYAF[dF]-OH; N-terminus assumed) |  |  | half-life at 50 µg/mL [1]: 87 ± 19 min; EC50 (human CMKLR1; [2]): 4.24 ± 1.87 nM
10 | CC(C)C[C@H](NC(=O)[C@@H](N)Cc1ccc(O)cc1)C(=O)N1CCC[C@H]1C(=O)NCC(=O)N[C@@H](CCC(N)=O)C(=O)N[C@@H](Cc1ccccc1)C(=O)N[C@H](Cc1ccccc1)C(=O)N[C@@H](Cc1ccccc1)C(=O)N[C@@H](CO)C(=O)O [compound 28] (H-YLPGQF[dF]FS-OH; N-terminus assumed) | 0,97 DF/F0 | 0.77 nM | half-life at 50 µg/mL [1]: 24 min
11 | C[C@@H](NC(=O)[C@H](Cc1ccccc1)NC(=O)[C@H](Cc1ccccc1)NC(=O)[C@@H](CO)NC(=O)[C@@H]1CCCN1C(=O)[C@@H](Cc1ccc(O)cc1)NC(=O)[C@H](N)Cc1ccc(O)cc1)C(=O)N[C@@H](Cc1ccccc1)C(=O)N1CCC[C@H]1C(=O)O [compound 154] (H-[dY][dY]P[dS]FF[dA]FP-OH; N-terminus assumed) |  |  | half-life at 50 µg/mL [1]: 374 min
12 | CC(C)C[C@H](NC(=O)[C@H](N)Cc1ccc(O)cc1)C(=O)N1CCC[C@H]1C(=O)N[C@H](CO)C(=O)N[C@@H](CCC(N)=O)C(=O)N[C@@H](Cc1ccc(O)cc1)C(=O)N[C@@H](C)C(=O)N[C@@H](Cc1ccccc1)C(=O)N[C@H](Cc1ccccc1)C(=O)O [yLPsQYAFf] (H-[dY]LP[dS]QYAF[dF]-OH; N-terminus assumed) |  |  | EC50 (human CMKLR1): 0.49 ± 0.13 nM
13 | FLPGQFAFS-NH2 [compound 3] | 1,77 DF/F0 | 41.3 nM | 
14 | FPPGQGAFK-OH [compound 66] | 0,67 DF/F0 | 1180 nM | 
15 | FYPGQWAYS-NH2 [compound 20] | 0,64 DF/F0 | 12900 nM | 
16 | WFPGQYAYS-NH2 [compound 23] | 0,44 DF/F0 | 20700 nM | 
17 | WYPGNFAFS-NH2 [compound 16] | 1,47 DF/F0 | 3840 nM | 
18 | YFPGHFAFS-NH2 |  |  | stability: t1/2 ±SD ([1]; peptide half life in human serum (25% v/v in RPMI, 37°C), HPLC assay, mean of three independent experiments ± SD): 17 ± 4 min
19 | YFPGHFAFS-NH2 [compound 7] | 1,55 DF/F0 |  | 
20 | YFPGHFAFS-OH [compound 31] |  |  | max response (human CMKLR1): 1,07 DF/F0
21 | YFPGNFAFS-NH2 [compound 6] | 1,30 DF/F0 |  | 
22 | YFPGNFAFS-OH [compound 32] |  |  | max response (human CMKLR1): 0,89 DF/F0
23 | YFPGQFAFG-OH |  |  | half-life at 50 µg/mL [1]: 13 ± 1 min
24 | YFPGQFAFK-NH2 [compound 2] | 1,84 DF/F0 | 37.3 nM | 
25 | YFPGQFAFQ-OH [compound 50] | 1,04 DF/F0 | 52.6 nM | 
26 | YFPGQFDFS-OH [compound 53] |  |  | max response (human CMKLR1): 0,93 DF/F0
27 | YFPGQWAWS-NH2 [compound 9] | 1,61 DF/F0 | 1880 nM | 
28 | YFPGQYAFF-NH2 [compound 1] | 1,47 DF/F0 | 15.2 nM | 
29 | YFPGYFAFG-NH2 [compound 11] | 1,41 DF/F0 | 2620 nM | 
30 | YYPGQYAYS-NH2 [compound 17] | 1,09 DF/F0 | 4360 nM | 

Second part, led by results:

Row | max response (human CMKLR1; [3]) | EC50 (human CMKLR1; [4]) | Molecule | also measured
31 | 1,24 DF/F0 | 2440 nM | C[C@H](NC(=O)[C@H](Cc1ccccc1)NC(=O)[C@@H](CCC(N)=O)NC(=O)CNC(=O)[C@H](Cc1ccccc1)NC(=O)[C@H](C)NC(=O)[C@@H](N)Cc1ccccc1)C(=O)N[C@@H](Cc1ccccc1)C(=O)N[C@H](CO)C(=O)O [compound 114] (H-FAFG[dQ]FAF[dS]-OH; N-terminus assumed) | 
32 | 0,9 DF/F0 | 4140 nM | CC(C)C[C@H](NC(=O)[C@H]1CCCN1C(=O)CNC(=O)[C@H](Cc1ccccc1)NC(=O)[C@H](CC(C)C)NC(=O)[C@@H](N)Cc1ccccc1)C(=O)N[C@@H](C)C(=O)N[C@@H](CC(C)C)C(=O)N1CCC[C@@H]1C(=O)O [compound 116] (H-FLFG[dP]LAL[dP]-OH; N-terminus assumed) | 
33 | 0,61 DF/F0 | 21500 nM | CC(C)C[C@H](NC(=O)[C@@H](Cc1ccccc1)NC(=O)[C@H]1CCCN1C(=O)[C@H](CC(C)C)NC(=O)[C@H](C)NC(=O)[C@H](Cc1ccc(O)cc1)NC(=O)[C@H]1CCCN1C(=O)[C@H](CC(C)C)NC(=O)[C@H](N)Cc1ccccc1)C(=O)O [compound 118] (H-[dF]L[dP]YAL[dP][dF]L-OH; N-terminus assumed) | 
34 | 1,62 DF/F0 | 139 nM | CC(C)C[C@H](NC(=O)[C@H](Cc1ccccc1)NC(=O)[C@H](Cc1ccc(O)cc1)NC(=O)[C@@H]1CCCN1C(=O)[C@H]1CCCN1C(=O)[C@@H]1CCCN1C(=O)[C@H](CC(C)C)NC(=O)[C@H](N)Cc1ccc(O)cc1)C(=O)N[C@H](Cc1ccccc1)C(=O)O [compound 143] (H-[dY]LP[dP]PYFL[dF]-OH; N-terminus assumed) | 
35 | 1,7 DF/F0 | 302 nM | CC(C)C[C@H](NC(=O)[C@H](Cc1ccc(O)cc1)NC(=O)[C@@H](Cc1ccccc1)NC(=O)[C@@H]1CCCN1C(=O)[C@H]1CCCN1C(=O)[C@@H]1CCCN1C(=O)[C@H](CC(C)C)NC(=O)[C@@H](N)Cc1ccc(O)cc1)C(=O)N1CCC[C@H]1C(=O)O [compound 152] (H-YLP[dP]P[dF]YLP-OH; N-terminus assumed) | 
36 | 0,73 DF/F0 | 1240 nM | FLPGQFAFK-OH [compound 67] | 
